Among the data in the OPERA property sets (Mansouri et al. 2018) are logP values, retold here.

Peptide text beside a SMILES is read from it.

Broadly, the logP is the decadic logarithm of the partition coefficient of the neutral form, usually between octanol and water. `CCC(C(c1ccc(OC)cc1)c1ccc(OC)cc1)[N+](=O)[O-]` (centres undefined) showed a log partition coefficient (logP) of 4.45.

`Cc1n[nH]c(C(=O)Nc2ccccc2)c1[N+](=O)[O-]` gave a log partition coefficient (logP) of 1.81.

The molecule `CCCCCNC(=O)c1ccc(S(N)(=O)=O)cc1` came in with a logP of 1.51.

In turn, `c1cncc(CN2CCCC2)c1` yielded a lipophilicity (logP) of 1.1.

Consider `COC`, for which the logP was 0.1.

`N#CCCN(CCC#N)N=O` came in with a lipophilicity (logP) of 0.08. The logP values of the last two molecules are within 0.2 log units of each other.

In the case of `O=C(O)Cc1ccc2ccccc2c1`, the logP stood at 2.81.

Take `CC1(O)CCC2C3CCC4=CC(=O)CCC4(C)C3(F)C(O)CC21C` (centres undefined): the logP amounted to 2.38.

The molecule `Clc1ccc(Cl)c(Cl)n1` displayed a logP of 2.77.

On to `Cn1nc2ccccc2n1`, for which the logP was 1.64.

For the molecule `CSc1ccc(C(=O)O)cc1`, the log partition coefficient (logP) came out at 2.74.

Molecule `CCOCCN(CCOCC)N=O` registered a log partition coefficient (logP) of 0.79.

The molecule `CCCCCOC1OC(CO)C(O)C(O)C1O` (centres undefined) had a lipophilicity (logP) of -0.42.

Molecule `Nc1ccc(S(=O)(=O)c2ccc(F)cc2)cc1` displayed a log partition coefficient (logP) of 2.17.

Molecule `c1ccc2c(c1)[nH]c1ccccc12` registered a logP of 3.72.

With `O=CNc1cccc([N+](=O)[O-])c1`, the logP is 1.4.

In the case of `N#CC(Cl)(Cl)Cl`, the log partition coefficient (logP) worked out at 2.09.

The molecule `ClCc1ccc(Cl)cc1Cl` had a logP of 3.82.

As for `C[C@]12CCC(=O)C=C1CC[C@@H]1[C@@H]2CC[C@]2(C)C(=O)CC[C@@H]12`, the logP stood at 2.75.

Molecule `CCOC(=O)CC` had a lipophilicity (logP) of 1.21.

`O=C(O)COc1ccc(F)cc1`: the lipophilicity (logP) was determined as 1.64.

Molecule `CCOP(=O)(OCC)Oc1ccccc1` yielded a logP of 1.64.

For the molecule `CC(=O)OCC1=C(C(=O)O)N2C(=O)[C@@H](NC(=O)CC#N)[C@H]2SC1`, the logP is -0.45.

As to `CCOc1c(OC)cc(CCN)cc1OC`, the lipophilicity (logP) is 1.11.

In turn, `CS(=O)(=O)c1c(F)c(F)c(F)c(F)c1F` registered a lipophilicity (logP) of 1.11.

Molecule `CNC(=O)c1ccccc1C(=O)c1ccccc1` returned a lipophilicity (logP) of 2.09.

For `N#Cc1cccc(C#N)c1`, the logP turned out to be 0.8.

In turn, `CCNc1nc(NCC)nc(SC(F)F)n1` had a logP of 3.28.

With `CCOP(=S)(OCC)Oc1ccc(SC)cc1C`, the logP was determined as 4.16.

In turn, `Cn1cccn1` yielded a logP of 0.23.

With `CCOP(=O)(NC(C)C)Oc1ccc(SC)c(C)c1` (centres undefined), the log partition coefficient (logP) stood at 3.23.

`Cc1ccc(Cl)cc1Cl`: the logP amounted to 4.24.

Consider `CC(=O)c1ccccn1`, for which the logP is 0.85.

In turn, `CC(=O)N[C@H](C(=O)N[C@@H](C)C(=O)N[C@H](C(N)=O)C(C)C)C(C)C` (Ac-Val-Ala-Val-NH2) came in with a logP of -0.67.

Molecule `COc1cc(OC)cc(C(=O)O)c1` gave a log partition coefficient (logP) of 2.19.

Turning to `Cc1cccc2sc3nncn3c12`, the lipophilicity (logP) stood at 1.7.

As to `Nc1nncc2ccccc12`, the logP was 0.82.

`O=C(NP(=O)(N1CC1)N1CC1)c1ccccc1I`: the logP was 1.05.

As to `Nc1ncccn1`, the logP is -0.22.

As for `C1CNCCN1`, the logP was -1.5.

Consider `CSCS(=O)CC(CO)NC(=O)C=Cc1c(C)[nH]c(=O)[nH]c1=O` (centres undefined), for which the lipophilicity (logP) was -1.71.

The molecule `CON(C)C(=O)Nc1ccc(C(=O)c2ccccc2)cc1` yielded a logP of 2.86.

`O=C(O)C(Cl)(Cl)Cl` yielded a logP of 1.33.

Take `Cc1ncc[nH]1`: the logP was found to be 0.24.

On to `O=C1c2ccccc2C(=O)N1SC(Cl)(Cl)Cl`, for which the logP is 2.85.

Take `COCc1ccc(C(=O)O)cc1`: the logP is 1.76.

Regarding `O=C(O)c1c2ccccc2cc2ccccc12`, the logP was found to be 3.85.

Regarding `CC(=O)Nc1ccccc1[N+](=O)[O-]`, the logP worked out at 1.

The molecule `CCCCC(N)Cc1ccccc1` (centres undefined) came in with a logP of 3.36.

Consider `Cc1ccc(Cl)cc1NC1=NCCN1`, for which the log partition coefficient (logP) was determined as 1.83.

`c1ccc(Nc2ccc3ccccc3c2)cc1` gave a logP of 4.38.

In turn, `CC1OC(=O)c2ccccc21` (centres undefined) gave a log partition coefficient (logP) of 1.41.

Molecule `CC1(C)S[C@@H]2[C@H](NC(=O)C(C(=O)O)c3ccccc3)C(=O)N2[C@H]1C(=O)O` (some centres undefined) returned a logP of 1.13.

The molecule `CCc1cc(OP(=S)(OC)OC)ccc1[N+](=O)[O-]` displayed a lipophilicity (logP) of 3.74.

Regarding `COC(=O)CNC(=O)c1ccc([N+](=O)[O-])cc1`, the logP turned out to be 0.98.

The molecule `OCCCO` gave a logP of -1.04.

As for `C=CCN1CC[C@]23CCCC[C@H]2[C@H]1Cc1ccc(O)cc13`, the log partition coefficient (logP) was 3.48.

`CC(=O)OCc1ccc(C)cc1` returned a logP of 2.44.

Molecule `CC1C(c2ccccc2)OCCN1N=O` (centres undefined) came in with a logP of 2.09.

As for `Nc1ccc2ccccc2c1`, the log partition coefficient (logP) worked out at 2.28.

As to `CC(O)CCC(=O)c1ccoc1` (centres undefined), the lipophilicity (logP) was found to be 0.84.

Take `O=C1C=C(N2CC=CC2)C(=O)c2ccccc21`: the logP is 2.85.

Molecule `CN(C)/N=N/c1ccccc1CO` displayed a lipophilicity (logP) of 1.73.

Take `O=C(OCCCc1cnc[nH]1)c1ccccc1`: the logP was 2.64.

`CC(=O)C1CC1` yielded a logP of 0.49.

On to `S=P(N1CC1)(N1CC1)N1CC1`, for which the log partition coefficient (logP) worked out at 0.53.

For `COC(=O)c1cnc2ccccc2c1`, the lipophilicity (logP) is 2.25.

As for `CN(C)c1ccc(N=Nc2ccccc2)cc1`, the log partition coefficient (logP) came to 4.58.

`N#CC(=Cc1ccccc1)C(N)=O` returned a log partition coefficient (logP) of 1.56.

As to `CCNc1ccccc1`, the logP turned out to be 2.16.

Take `Oc1c(O)c(Cl)c(Cl)c(Cl)c1Cl`: the logP came to 4.29.

For `Nc1ccc(C(=O)Oc2ccccc2Br)c(O)c1`, the logP came out at 3.74.

`CCCC(C)C1(CC)C(=O)N=C(S)NC1=O` (centres undefined): the logP was determined as 2.85.

The molecule `CNC(=S)NNc1ccccc1` yielded a log partition coefficient (logP) of 1.17.

Consider `CCCCCC(C)O` (centres undefined), for which the logP amounted to 2.31.

`O=c1ccn(C2OC(CO)C(O)C2O)c(=O)[nH]1` (centres undefined): the logP is -1.98.

For `CCCc1ccc(C(=O)OCCN(C)C)cc1`, the logP was determined as 3.63.

For the molecule `CCCCCCC(=O)NN`, the logP was found to be 0.97.

For `C=C(CC(=O)c1ccc(-c2ccccc2Cl)cc1)C(=O)O`, the logP was 3.32.

`OCc1cccnc1` had a logP of -0.02.

Molecule `CC(=O)c1cccc(F)c1` yielded a logP of 1.77.

As to `CC(=O)c1cccs1`, the logP stood at 1.25.

Molecule `CC(CO)NC1=C(N2CC2)C(=O)C(NC(C)CO)=C(N2CC2)C1=O` (centres undefined) registered a logP of -0.37.

In turn, `O=C(O)C1COc2ccccc2O1` (centres undefined) yielded a logP of 1.4.

Molecule `COP(=S)(OC)SCC(=O)N(C)C=O` came in with a logP of 1.48.

For `COc1cc(C(C)(C)C)c(OC)cc1CC(C)N` (centres undefined), the logP was found to be 3.91.

With `CNc1nc(C)nc2c1ncn2[C@@H]1O[C@H](CO)C[C@@H]1F`, the logP worked out at 0.64.

With `c1ccc2c(c1)nnc1ccccc12`, the logP is 2.4.

For the molecule `NC(=O)COc1ccccc1`, the lipophilicity (logP) amounted to 0.76.

`Clc1cccc(-c2cccc(Cl)c2Cl)c1Cl` yielded a log partition coefficient (logP) of 6.18.

As for `N#CCc1ccccc1`, the logP came out at 1.56.

Consider `CCC(CNC)c1ccccc1` (centres undefined), for which the log partition coefficient (logP) came out at 2.82.

For `C=CCC1(CC(=C)Br)C(=O)NC(=O)N(C)C1=O` (centres undefined), the logP was 1.78.

Consider `C#CCCC(C)=O`, for which the lipophilicity (logP) was found to be 0.58.

In turn, `O=C(O)COc1ccc(Cl)c([N+](=O)[O-])c1` came in with a logP of 1.85.

`O=C1CN(N=Cc2ccc([N+](=O)[O-])o2)C(=O)N1` showed a logP of -0.47.

Take `CC(C)(C)c1cccc(C(C)(C)C)n1`: the log partition coefficient (logP) was determined as 4.14.

Molecule `NNS(=O)(=O)c1ccccc1` came in with a lipophilicity (logP) of -0.14.

Regarding `CCCCC(NC(C)=O)C(=O)OC` (centres undefined), the logP is 0.79.

Regarding `O=C(O)CNC(=O)c1ccccc1O`, the lipophilicity (logP) was determined as 0.95.

As to `CCCn1cnc([N+](=O)[O-])n1`, the logP was determined as 0.3.

The molecule `CCCCOC(=O)c1ccc(S(N)(=O)=O)cc1` showed a log partition coefficient (logP) of 2.34.

In turn, `NC(=O)NC(=O)Cc1ccccc1` came in with a logP of 0.87.

Molecule `COC(=O)C1C(C=C(Cl)Cl)C1(C)C` (centres undefined) registered a logP of 3.63.

With `c1cc2nc[nH]c2cn1`, the lipophilicity (logP) worked out at 0.18.

For the molecule `COP(=S)(OC)SCSc1ccc(Cl)cc1`, the lipophilicity (logP) was 4.82.

In the case of `NNC(=O)c1ccnc(Br)c1`, the logP is 0.25.

As to `O=C1c2ccccc2-c2ccccc21`, the log partition coefficient (logP) came to 3.58.

Consider `CC12CCC(=O)C=C1CCC1C2C(O)CC2(C)C1CCC2(O)C(=O)COC(=O)CCCCCC(=O)O` (centres undefined), for which the logP came out at 3.26.

Consider `NC(=O)c1ccc(Br)cc1`, for which the logP was 1.76.

`CCN(CC)C(=O)c1cccnc1` registered a logP of 0.33.

In the case of `O=C1CCCCO1`, the log partition coefficient (logP) was -0.35.

`CCCCOc1c(OC)cc(CCN)cc1OC` yielded a lipophilicity (logP) of 2.32.

In the case of `NC(=O)c1ccncc1`, the logP is -0.28.

In turn, `O=C1OC2(CCCC2)c2ccccc21` yielded a logP of 2.56.

Regarding `CCOC(=O)c1ccoc1`, the logP came out at 1.78.

Molecule `CCN` showed a logP of -0.13.

In turn, `CCC(C)c1cc([N+](=O)[O-])cc(C(C)C)c1O` (centres undefined) gave a logP of 4.19.

In turn, `CCCC(=O)O[C@H]1[C@H](C)O[C@@H](O[C@H]2[C@H](N(C)C)[C@@H](O)[C@H](O[C@H]3[C@@H](CC=O)C[C@@H](C)[C@@H](O)C=CC=CC[C@@H](C)OC(=O)C[C@@H](O)[C@@H]3OC)O[C@@H]2C)C[C@@]1(C)OC(=O)CC` had a log partition coefficient (logP) of 3.08.

In turn, `CN1CCN(CCCN2c3ccccc3Sc3ccc(C(F)(F)F)cc32)CC1` came in with a logP of 5.03.

The molecule `CS(=O)(=O)CC#N` showed a logP of -1.42.

On to `CS(=O)(=O)CCC(N)C(=O)O` (centres undefined), for which the lipophilicity (logP) is -3.1.

On to `CC(=O)NC(Cc1ccc(O)cc1)C(N)=O` (centres undefined), for which the lipophilicity (logP) is -0.87.

`NS(=O)(=O)c1cc2c(cc1Cl)N=CNS2(=O)=O` returned a lipophilicity (logP) of -0.24.

Molecule `O=C(O)Cc1ccccc1Nc1ccccc1` gave a logP of 3.49.

`O=C1CC(c2ccc(C(F)(F)F)cc2)Cc2c1c(=O)c1cc(Cl)ccc1n2O` (centres undefined): the logP is 3.46.

For `O=S(=O)(Nc1ccccc1)C(F)F`, the logP was 1.95.

Turning to `NC(=O)Nc1ccccc1F`, the logP is 0.88.

As for `CN(Cc1ccc(C#N)cc1)N=O`, the log partition coefficient (logP) came out at 0.95. The logP values of the last two molecules are within 0.2 log units of each other.

In turn, `CN(C)C(N(C)C)=S(I)c1cc(Cl)cc(Cl)c1` (centres undefined) showed a logP of 0.52.

`COc1ccccc1C=CC(=O)OCCOc1ccc(C=NO)cc1OC` yielded a logP of 3.56.

The molecule `CCN1CC(C(O)C(CC2CCCCC2)NC(=O)C(Cc2cnc[nH]2)NC(=O)C(CC(=O)N2CC(OCOC)C(OCOC)C2)Cc2ccccc2)OC1=O` (centres undefined) came in with a log partition coefficient (logP) of 2.31.

For `CNC(=O)COc1ccccc1`, the logP worked out at 1.02.

Turning to `CN(C)CCCc1ccccc1`, the log partition coefficient (logP) was determined as 2.73.
